According to patent US6350609B1, “Electrospraying for mass fabrication of chips and libraries” (New York University, priority 1997, dated 2002):
Values joined by “and” are separate entries in the source; they are usually repeats but may differ in a detail not shown here. Equal values may be shown once. Blank lines part the entries; values can stand above or below the molecule they belong to.

What was measured:
[1] = molecular target: T1, Pancreatic RNAse (Bos taurus, UniProt P61823); experiment: Mechano-chemical effect of a specific ligand on cross-linked protein film (isometric tension); format: biochemical; settings: ligand 5-10 times binding constant
T1 construct: purchased Sigma, St. Louis
T1 sequence (P61823 27-150): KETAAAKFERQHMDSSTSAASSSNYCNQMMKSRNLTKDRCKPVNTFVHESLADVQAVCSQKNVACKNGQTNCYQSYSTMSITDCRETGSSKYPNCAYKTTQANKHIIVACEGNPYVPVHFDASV

[2] = tested on: Pancreatic Trypsin; experiment: as above; format: biochemical; settings: ligand concentration 5-10 times binding constant; for Effect in Dried Sample % (relative change in isometric tension in protein film induced by binding of specific ligand): conventional drying on glass
[3] = molecular target: Avidin (Gallus gallus, UniProt P02701); experiment: as above; format: biochemical; settings: ligand 5-10 times binding constant
[4] = tested on: α-Lactalburnin; experiment: as above; format: biochemical
Excerpt: Using protein as an example of a biomolecule for electrospray deposition, the structure of the protein film and the functional properties of the protein molecules in the film is dependent on the path of flight of the electrospray, speed of the charged particles controlled by voltage, sign of the charges, humidity and temperature under which the protein molecules are electrosprayed, protein concentration in solution, and presence of stabilizers. At short distances, e.g., about 15 mm between capillary and substrate, or when the electrospray takes place in a humid atmosphere (relative humidity of more than 70-80%), charged microdroplets from the electrospray can reach the surface without decay or the production of dry ions, i.e., in the wet electrospray regime. The sample films obtained after evaporation of the deposited microdroplets on the substrate have much in common with the sample protein films obtained conventionally by applying a protein solution directly to the substrate and allowing the proteins to dry.

[5] = molecular target: T2, 3-phosphoglycerate kinase (yeast) (Saccharomyces cerevisiae, UniProt P00560); experiment: as above; format: biochemical; settings: cross-linked 3-phosphoglycerate kinase (yeast) film, ligand 5-10 times binding constant
T2 sequence (P00560 1-416): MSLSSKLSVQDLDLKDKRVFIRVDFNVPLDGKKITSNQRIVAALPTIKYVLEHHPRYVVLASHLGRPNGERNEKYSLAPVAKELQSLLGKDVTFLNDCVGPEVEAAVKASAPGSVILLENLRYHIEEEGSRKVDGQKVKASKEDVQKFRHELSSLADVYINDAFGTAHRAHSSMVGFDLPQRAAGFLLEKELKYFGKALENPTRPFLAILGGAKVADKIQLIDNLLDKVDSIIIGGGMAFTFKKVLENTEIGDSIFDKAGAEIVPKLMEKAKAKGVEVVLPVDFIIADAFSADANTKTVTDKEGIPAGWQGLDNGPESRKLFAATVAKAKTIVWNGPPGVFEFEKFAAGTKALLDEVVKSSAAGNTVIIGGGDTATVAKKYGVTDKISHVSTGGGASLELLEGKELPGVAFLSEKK

[6] = molecular target: Lysozyme (egg) (Gallus gallus, UniProt P00698); experiment: as above; format: biochemical; settings: ligand 5-10 times binding constant
[7] = molecular target: T3, Alcohol dehydrogenase (horse liver) (Equus caballus, UniProt P00327); experiment: as above; format: biochemical; settings: 0.4 mM NADH solution
T3 construct: purchased Sigma, St. Louis, Mo; host or cells: horse liver
Description: A film of horse liver alcohol dehydrogenase (LADH, Sigma, St. Louis, Mo., shown in FIG. 14B, was fabricated on an Al electrode covered with a sublayer consisting of 95% of the sodium salt of alginic acid (Sigma, St. Louis, Mo.) and 5 of Triton X-100 detergent. The LADH solution containing 5 mg/ml of protein and 1.5 mg/ml of sucrose was electrosprayed in dry air at +4.3 kV and 30-40 nA from a capillary placed about 15 mm over the substrate. The deposited film was cross-linked for 8 minutes with the vapor from 25% glutaraldehyde at 28° C. The samples were then tested for their ability to change isometric tension in response to 0.4 mM NADH solution.

[8] = tested on: goat antibody against human serum albumin; experiment: microELISA of electrospray-deposited protein antigens on IMMOBILON-P filter; format: binding; settings: primary antibody against human serum albumin 1:1000, AP-labeled secondary antibody 1:3000
Description: Different antigens (serum albumins from human and ox, ovalbumin and human hemoglobin) were electrospray deposited onto a wetted IMMOBILON-P membrane filter through a mask having multiple holes. After each deposition of a different protein antigen, the mask was shifted by 1.1 mm. After depositing all four protein antigens, the membrane filter was dried for 15 min. at 37° C. and blocked by soaking in a PBS solution (10 mM sodium phosphate buffer, pH 7.2, 0.9% NaCl) with 0.05% Tween-20, 1% chicken albumin (ovalbumin). […] The filter was then washed twice with PBS buffer for 10 seconds and reacted with a solution of anti-goat IgG antibodies labeled with alkaline phosphatase (Sigma, diluted 1:3000).

[9] = tested on: peroxidase; experiment: Enzyme activity of electrospray-deposited peroxidase on nitrocellulose filter (DAB substrate); format: biochemical; settings: deposited through polypropylene mask onto wetted nitrocellulose filter; DAB staining
Excerpt: The electrospray conditions used in this example were similar to those used in Example 1.
After electrospray, the pattern of deposited enzyme was not visible on the membrane filter surface. However, the patterns of the enzymes did become visible after soaking the peroxidase-deposited membrane filter in a solution of a standard peroxidase substrate (3,3′-diaminobenzidine, abbreviated DAB, and obtained from Sigma, St. Louis, Mo.), resulting in the formation of an insoluble brown colored product of the peroxidase reaction.

[10] = molecular target: Concanavalin A (Canavalia ensiformis, UniProt P02866); settings: cross-linked Concanavalin A film, ligand 5-10 times binding constant
Description: Protein films were prepared by electrospray for use in a mechanochemical method of assay. A 2 mg/ml concanavalin A (Sigma, St. Louis, Mo.) solution, containing 0.5 mg/ml of glycerol was electrosprayed through a rectangular single hole onto an Al electrode covered with a polymeric conducting sublayer of about 2-5 microns thick. The sublayer was prepared by drying a thin layer of water solution of a mixture of three compounds (polyethylene glycol-8000, poly(anetholesulfonic acid)—Na-salt and Triton X-100), 3%. each. The protein solution was electrosprayed from a capillary tip placed 20 mm over the substrate, with positive voltage of 4.0 kV at the capillary and a current of 33 nA. Deposition was performed in dry air for 10 minutes. After electrospray deposition, the sample was cross-linked for 15 minutes in a vapor of 25% glutaraldehyde (Aldrich Chemical Company, Milwaukee, Wis.) at 25° C. Upon applying a droplet of water on the substrate surface, the sample was floated off the substrate within 5 seconds.

Chain of Lysozyme (egg) (P00698 19-147): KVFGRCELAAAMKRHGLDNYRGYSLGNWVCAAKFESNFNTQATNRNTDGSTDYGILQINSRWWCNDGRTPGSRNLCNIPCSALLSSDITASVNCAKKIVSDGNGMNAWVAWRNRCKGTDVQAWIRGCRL
Chain of Avidin (P02701 25-152, species assumed): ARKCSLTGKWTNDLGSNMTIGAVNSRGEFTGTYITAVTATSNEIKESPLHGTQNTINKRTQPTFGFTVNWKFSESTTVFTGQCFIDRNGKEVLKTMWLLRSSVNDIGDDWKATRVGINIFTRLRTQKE
T3 sequence (P00327 whole entry): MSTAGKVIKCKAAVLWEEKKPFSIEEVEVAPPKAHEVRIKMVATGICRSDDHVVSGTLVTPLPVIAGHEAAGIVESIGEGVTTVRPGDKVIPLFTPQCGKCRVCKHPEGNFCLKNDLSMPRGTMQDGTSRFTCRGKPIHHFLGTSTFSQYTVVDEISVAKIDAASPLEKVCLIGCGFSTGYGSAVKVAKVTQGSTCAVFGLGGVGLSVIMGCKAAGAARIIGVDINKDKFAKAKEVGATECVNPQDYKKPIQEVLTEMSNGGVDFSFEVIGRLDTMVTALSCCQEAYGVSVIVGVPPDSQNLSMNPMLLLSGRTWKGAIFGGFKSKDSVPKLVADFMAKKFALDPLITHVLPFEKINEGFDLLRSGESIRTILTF

Effect in Dried Sample % (relative change in isometric tension) ([1]; conventional drying on glass): +4.0% | Effect in Electrospray Deposit Sample % (relative change in isometric tension) ([1]; electrospray deposited): −3.4%
Molecule: Nc1ccn([C@@H]2O[C@H](CO)[C@@H](OP(=O)(O)O)[C@H]2O)c(=O)n1 [3′-Cytidine monophosphate]

Effect in Dried Sample % (relative change in isometric tension in protein film induced by binding of specific ligand) [2]: +23%
Molecule: CCOC(=O)[C@H](CCCN=C(N)N)NC(=O)c1ccccc1 [BAEE]

Molecule: O=C(O)CCCC[C@@H]1SC[C@@H]2NC(=O)N[C@@H]21 [Biotin]
Effect in Dried Sample % (relative change in isometric tension) ([3]; conventional drying on glass): −51% | Effect in Electrospray Deposit Sample % (relative change in isometric tension) ([3]; electrospray deposited): −41% and −48%

Molecule: [Ca+2] [Ca^+2]
Effect in Dried Sample % (relative change in isometric tension) ([4]; cross-linked α-Lactalburnin film, conventional drying on glass, ligand 5-10 times binding constant): +240% | Effect in Electrospray Deposit Sample % (relative change in isometric tension) ([4]; cross-linked α-Lactalburnin film, electrospray deposited, ligand 5-10 times binding constant): +370% | difference in mechanochemical response to ligand between wet electrospray deposited and conventionally prepared films ([4]; α-lactalbumin films, wet electrospray deposition onto glass covered with conducting SnO2 layer): No notable difference

Effect in Dried Sample % (relative change in isometric tension) ([5]; conventional drying on glass): +13% | Effect in Electrospray Deposit Sample % (relative change in isometric tension) ([5]; electrospray deposited): +16%
Molecule: Nc1ncnc2c1ncn2[C@@H]1O[C@H](COP(=O)(O)OP(=O)([O-])OP(=O)([O-])O)[C@@H](O)[C@H]1O.[Mg+2] [Mg-ATP]

Effect in Dried Sample % (relative change in isometric tension) ([6]; conventional drying on glass): −7.7% and −8.7% | Effect in Electrospray Deposit Sample % (relative change in isometric tension) ([6]; electrospray deposited): −6.3% and −3.5%
Molecule: CC(=O)N[C@H]1C(O)O[C@H](CO)[C@@H](O)[C@@H]1O (stereo partly drawn) [N-acetyl-D-glucosamine]

ligand-induced increase in isometric tension ([7]; conventionally prepared LADH film): 6-7% | ligand-induced increase in isometric tension ([7]; electrospray deposited LADH film, glutaraldehyde cross-linked): 6-7%
Molecule: NC(=O)C1=CN([C@@H]2O[C@H](COP(=O)(O)OP(=O)(O)OC[C@H]3O[C@@H](n4cnc5c(N)ncnc54)[C@H](O)[C@@H]3O)[C@@H](O)[C@H]2O)C=CC1 [NADH]

Effect in Dried Sample % (relative change in isometric tension in protein film induced by binding of specific ligand) [2]: +69% | Effect in Electrospray Deposit Sample % (relative change in isometric tension in protein film induced by binding of specific ligand) ([2]; electrospray deposited): +72; +72%
Molecule: Nc1ccc2cc3ccc(N)cc3nc2c1 [Proflavin]

Molecule: bovine albumin: serum albumin from ox, antigen electrospray deposited onto filter
spot intensity in microELISA [8]: less intensively colored

Molecule: human hemoglobin: protein antigen electrospray deposited onto IMMOBILON-P filter
spot intensity in microELISA [8]: less intensively colored

Molecule: peroxidase: commercially available peroxidase (Sigma), electrospray deposited; horseradish peroxidase per b108
enzymatic activity after electrospray deposition [9]: retained

Molecule: α-D-mannopyranoside
Effect in Dried Sample % (relative change in isometric tension) ([10]; conventional drying on glass): +11% | Effect in Electrospray Deposit Sample % (relative change in isometric tension) ([10]; electrospray deposited): +4%

B1: ovalbumin: protein antigen electrospray deposited onto IMMOBILON-P filter (protein, UniProt P01012 2-386, looked up)
Ovalbumin: GSIGAASMEFCFDVFKELKVHHANENIFYCPIAIMSALAMVYLGAKDSTRTQINKVVRFDKLPGFGDSIEAQCGTSVNVHSSLRDILNQITKPNDVYSFSLASRLYAEERYPILPEYLQCVKELYRGGLEPINFQTAADQARELINSWVESQTNGIIRNVLQPSSVDSQTAMVLVNAIVFKGLWEKAFKDEDTQAMPFRVTEQESKPVQMMYQIGLFRVASMASEKMKILELPFASGTMSMLVLLPDEVSGLEQLESIINFEKLTEWTSSNVMEERKIKVYLPRMKMEEKYNLTSVLMAMGITDVFSSSANLSGISSAESLKISQAVHAAHAEINEAGREVVGSAEAGVDAASVSEEFRADHPFLFCIKHIATNAVLFFGRCVSP
spot intensity in microELISA [8]: not visible at all
